Reference: patent publication US12492173B2, “Herbicidal substituted N-tetrazolyl aryl carboxamides” (Bayer Aktiengesellschaft, priority 2019, dated 2025)

Assays:
Type in all cases: in vivo
[1] = tested on: Matricaria inodora; assay: Pre-emergence herbicidal action, MATIN; settings: dosage 320 g/ha
From the text: (§1) 1. Pre-Emergence Herbicidal Action Against Harmful Plants Seeds of monocotyledonous and dicotyledonous weed plants and crop plants are laid out in sandy loam soil in wood-fiber pots and covered with soil. The compounds of the invention, formulated in the form of wettable powders (WP) or as emulsion concentrates (EC), are then applied to the surface of the covering soil in the form of an aqueous suspension or emulsion at a water application rate equating to 600 to 800 l/ha, with addition of 0.2% wetting agent. After the treatment, the pots are placed in a greenhouse and kept under good growth conditions for the trial plants. The damage to the test plants is scored visually after a test period of 3 weeks by comparison with untreated controls (herbicidal activity in percent (%): 100% activity=the plants have died, 0% activity=like control plants). […] The tables below illustrate, in an exemplary manner, the […] herbicidal action of the compounds according to the invention, the herbicidal activity being stated in percent. [table] In the experiments that follow, herbicidal action of numerous inventive compounds and the known compounds that are structurally closest from D1 (WO 2012/028579 A1) and D2 (WO 2018/202535 A1) were compared under the above-specified conditions by the pre-emergence and post-emergence method. The example numbers given in the tables relate to the compounds disclosed in the respective documents. In addition to the compounds disclosed in D1 and D2, the following compounds V-1 to V-14 that are encompassed by D1 or D2 but are not compounds specified therein were used in the comparative experiments: • V-1: 2-(methylsulfanyl)-3-(methylsulfinyl)-N-(1-methyl-1H-tetrazol-5-yl)-4-(trifluoromethyl)benzamide • V-2: 2-(methylsulfanyl)-3-(methylsulfonyl)-N-(1-methyl-1H-tetrazol-5-yl)-4-(trifluoromethyl)benzamide • V-3: 2,3-bis(ethylsulfanyl)-N-(1-methyl-1H-tetrazol-5-yl)-4-(trifluoromethyl)benzamide • V-4: 2-chloro-3-(ethylsulfanyl)-N-(1-methyl-1H-tetrazol-5-yl)-4-(trifluoromethyl)benzamide • V-5: 2-chloro-4-iodo-3-(methylsulfanyl)-N-(1-methyl-1H-tetrazol-5-yl)benzamide • V-6: 2-chloro-4-iodo-3-(methylsulfinyl)-N-(1-methyl-1H-tetrazol-5-yl)benzamide • V-7: 2-chloro-4-iodo-3-(methylsulfonyl)-N-(1-methyl-1H-tetrazol-5-yl)benzamide • V-8: 2-bromo-3-(methylsulfanyl)-N-(1-methyl-1H-tetrazol-5-yl)-4-(trifluoromethyl)benzamide • V-9: 2-bromo-3-(methylsulfinyl)-N-(1-methyl-1H-tetrazol-5-yl)-4-(trifluoromethyl)benzamide • V-10: 2-bromo-3-(methylsulfonyl)-N-(1-methyl-1H-tetrazol-5-yl)-4-(trifluoromethyl)benzamide • V-11: 2-bromo-3-(ethylsulfanyl)-N-(1-methyl-1H-tetrazol-5-yl)-4-(trifluoromethyl)benzamide • V-12: 2-bromo-3-(ethylsulfinyl)-N-(1-methyl-1H-tetrazol-5-yl)-4-(trifluoromethyl)benzamide • V-13: 2-bromo-3-(ethylsulfonyl)-N-(1-methyl-1-1H-tetrazol-5-yl)-4-(trifluoromethyl)benzamide • V-14: 2-cyclopropyl-3-(ethylsulfanyl)-N-(1-methyl-1H-tetrazol-5-yl)-4-(trifluoromethyl)benzamide Herbicidal Pre-Emergence Action: […]

[2] = tested on: Amaranthus retroflexus; assay: Pre-emergence herbicidal action, AMARE; settings: dosage 320 g/ha
From the text: as §1

[3] = tested on: Matricaria inodora; assay: Post-emergence herbicidal action, MATIN; parameters: key: % herbicidal action vs untreated; 100 = plants died, 0 = like control; settings: for Herbicidal action against MATIN: post-emergence, dosage 80 g/ha
Procedure: (§2) [table] 2. Post-Emergence Herbicidal Action Against Harmful Plants Seeds of monocotyledonous and dicotyledonous weed and crop plants are laid out in sandy loam soil in wood-fiber pots, covered with soil and cultivated in a greenhouse under good growth conditions. 2 to 3 weeks after sowing, the test plants are treated at the one-leaf stage. The compounds of the invention, formulated in the form of wettable powders (WP) or as emulsion concentrates (EC), are then sprayed onto the green parts of the plants in the form of an aqueous suspension or emulsion at a water application rate equating to 600 to 800 l/ha, with addition of 0.2% wetting agent. After the test plants have been left to stand in the greenhouse under optimal growth conditions for about 3 weeks, the action of the preparations is assessed visually in comparison to untreated controls (herbicidal action in percent (%): 100% activity=the plants have died, 0% activity=like control plants). […] The tables below illustrate, in an exemplary manner, the post-emergence herbicidal action of the compounds according to the invention, the herbicidal activity being stated in percent. In the experiments that follow, herbicidal action of numerous inventive compounds and the known compounds that are structurally closest from D1 (WO 2012/028579 A1) and D2 (WO 2018/202535 A1) were compared under the above-specified conditions by the pre-emergence and post-emergence method. The example numbers given in the tables relate to the compounds disclosed in the respective documents. In addition to the compounds disclosed in D1 and D2, the following compounds V-1 to V-14 that are encompassed by D1 or D2 but are not compounds specified therein were used in the comparative experiments: • V-1: 2-(methylsulfanyl)-3-(methylsulfinyl)-N-(1-methyl-1H-tetrazol-5-yl)-4-(trifluoromethyl)benzamide • V-2: 2-(methylsulfanyl)-3-(methylsulfonyl)-N-(1-methyl-1H-tetrazol-5-yl)-4-(trifluoromethyl)benzamide • V-3: 2,3-bis(ethylsulfanyl)-N-(1-methyl-1H-tetrazol-5-yl)-4-(trifluoromethyl)benzamide • V-4: 2-chloro-3-(ethylsulfanyl)-N-(1-methyl-1H-tetrazol-5-yl)-4-(trifluoromethyl)benzamide • V-5: 2-chloro-4-iodo-3-(methylsulfanyl)-N-(1-methyl-1H-tetrazol-5-yl)benzamide • V-6: 2-chloro-4-iodo-3-(methylsulfinyl)-N-(1-methyl-1H-tetrazol-5-yl)benzamide • V-7: 2-chloro-4-iodo-3-(methylsulfonyl)-N-(1-methyl-1H-tetrazol-5-yl)benzamide • V-8: 2-bromo-3-(methylsulfanyl)-N-(1-methyl-1H-tetrazol-5-yl)-4-(trifluoromethyl)benzamide • V-9: 2-bromo-3-(methylsulfinyl)-N-(1-methyl-1H-tetrazol-5-yl)-4-(trifluoromethyl)benzamide • V-10: 2-bromo-3-(methylsulfonyl)-N-(1-methyl-1H-tetrazol-5-yl)-4-(trifluoromethyl)benzamide • V-11: 2-bromo-3-(ethylsulfanyl)-N-(1-methyl-1H-tetrazol-5-yl)-4-(trifluoromethyl)benzamide • V-12: 2-bromo-3-(ethylsulfinyl)-N-(1-methyl-1H-tetrazol-5-yl)-4-(trifluoromethyl)benzamide • V-13: 2-bromo-3-(ethylsulfonyl)-N-(1-methyl-1-1H-tetrazol-5-yl)-4-(trifluoromethyl)benzamide • V-14: 2-cyclopropyl-3-(ethylsulfanyl)-N-(1-methyl-1H-tetrazol-5-yl)-4-(trifluoromethyl)benzamide Herbicidal Pre-Emergence Action: […]

[4] = tested on: Viola tricolor; assay: Post-emergence herbicidal action, VIOTR; parameters: key: % herbicidal action vs untreated; 100 = plants died, 0 = like control; settings: for Herbicidal action against VIOTR: post-emergence, dosage 80 g/ha
Procedure: as §2

[5] = tested on: Veronica persica; assay: Post-emergence herbicidal action, VERPE; parameters: key: % herbicidal action vs untreated; 100 = plants died, 0 = like control; settings: for Herbicidal action against VERPE: post-emergence, dosage 80 g/ha
Procedure: as §2

[6] = tested on: Amaranthus retroflexus; assay: Post-emergence herbicidal action, AMARE; parameters: key: % herbicidal action vs untreated; 100 = plants died, 0 = like control; settings: for Herbicidal action against AMARE: post-emergence, dosage 80 g/ha
Procedure: as §2

[7] = tested on: Pharbitis purpurea; assay: Post-emergence herbicidal action, PHBPU; settings: for Herbicidal action against PHBPU: post-emergence, dosage 80 g/ha
Procedure: as §2

[8] = tested on: Stellaria media; assay: Post-emergence herbicidal action, STEME; parameters: key: % herbicidal action vs untreated; 100 = plants died, 0 = like control; settings: for Herbicidal action against STEME: post-emergence, dosage 80 g/ha
Procedure: as §2

[9] = tested on: Abutilon theophrasti; assay: Pre-emergence herbicidal action, ABUTH; settings: dosage 320 g/ha
From the text: as §1

[10] = tested on: Veronica persica; assay: Pre-emergence herbicidal action, VERPE; settings: dosage 320 g/ha
From the text: as §1

[11] = tested on: Echinochloa crus-galli; assay: Post-emergence herbicidal action, ECHCG; parameters: key: % herbicidal action vs untreated; 100 = plants died, 0 = like control; settings: for Herbicidal action against ECHCG: post-emergence, dosage 80 g/ha
Procedure: as §2

[12] = tested on: Avena fatua; assay: Post-emergence herbicidal action, AVEFA; parameters: key: % herbicidal action vs untreated; 100 = plants died, 0 = like control
Procedure: as §2

[13] = tested on: Abutilon theophrasti; assay: Post-emergence herbicidal action, ABUTH; parameters: key: % herbicidal action vs untreated; 100 = plants died, 0 = like control; settings: for Herbicidal action against ABUTH: post-emergence, dosage 80 g/ha
Procedure: as §2

[14] = tested on: Setaria viridis; assay: Post-emergence herbicidal action, SETVI; parameters: key: % herbicidal action vs untreated; 100 = plants died, 0 = like control; settings: post-emergence, dosage 80 g/ha
Procedure: as §2

[15] = tested on: Stellaria media; assay: Pre-emergence herbicidal action, STEME; settings: dosage 320 g/ha
From the text: as §1

[16] = tested on: Polygonum convolvulus; assay: Pre-emergence herbicidal action, POLCO; settings: dosage 320 g/ha
From the text: as §1

[17] = tested on: Viola tricolor; assay: Pre-emergence herbicidal action, VIOTR; settings: dosage 320 g/ha
From the text: as §1

[18] = tested on: Echinochloa crus-galli; assay: Pre-emergence herbicidal action, ECHCG; settings: dosage 320 g/ha
From the text: as §1

[19] = tested on: Setaria viridis; assay: Pre-emergence herbicidal action, SETVI; settings: dosage 320 g/ha
From the text: as §1

Row | Compound | herbicidal action MATIN [1] | herbicidal action AMARE [2] | herbicidal action ABUTH [9] | herbicidal action VERPE [10] | Herbicidal action against MATIN [3] | Herbicidal action against VIOTR [4] | Herbicidal action against VERPE [5] | Herbicidal action against AMARE [6] | Herbicidal action against STEME [8] | Herbicidal action against SETVI [14] | Herbicidal action against ECHCG [11] | herbicidal action STEME [15] | herbicidal action POLCO [16] | herbicidal action VIOTR [17] | Herbicidal action against ABUTH [13] | Herbicidal action against PHBPU [7] | herbicidal action ECHCG [18] | further results
1 | CCn1nnnc1NC(=O)c1ccc(S(C)(=O)=O)c(CSC)c1Cl [Example 2-278] | 90% | 90% | 100% | 100% | – | – | – | – | – | – | – | – | – | – | – | – | – | herbicidal action MATIN ([3]; Dosage 80 g/ha): 90; herbicidal action VIOTR ([4]; Dosage 80 g/ha): 100; herbicidal action VERPE ([5]; Dosage 80 g/ha): 100; herbicidal action AMARE ([6]; Dosage 80 g/ha): 90; herbicidal action PHBPU ([7]; Dosage 80 g/ha): 80; herbicidal action STEME ([8]; Dosage 80 g/ha): 80; herbicidal action ECHCG ([11]; Dosage 80 g/ha): 100; herbicidal action AVEFA ([12]; Dosage 80 g/ha): 100; herbicidal action ABUTH ([13]; Dosage 80 g/ha): 90
2 | CCCn1nnnc1NC(=O)c1ccc(S(C)(=O)=O)c(C[S+](C)[O-])c1C (centres unmarked) [Example 3-38] | 100% | 90% | – | 100% | 80 | 100 | 100 | 100 | 100 | 80 | 90 | 90% | 80% | 100% | 90 | – | – | –
3 | Cn1nnnc1NC(=O)c1ccc(C(F)(F)F)c(CS(=O)(=O)CC(F)(F)F)c1Cl [Example 1-313] | – | 100% | 100% | – | 90 | 80 | 80 | 90 | 100 | 80 | – | 90% | – | – | 100 | 90 | – | –
4 | CCCn1nnnc1NC(=O)c1ccc(C)c(CS(C)(=O)=O)c1Cl [Example 3-289] | 100% | 100% | 80% | 90% | 100 | – | 90 | 90 | 90 | – | 90 | – | 80% | – | 80 | – | 100% | –
5 | CCCn1nnnc1NC(=O)c1ccc(C(F)F)c(C[S+](C)[O-])c1C (centres unmarked) [Example 3-108] | 100% | 100% | 100% | 90% | 90 | 100 | 100 | 80 | 100 | – | 80 | – | – | 100% | – | 100 | 90% | herbicidal action SETVI [19]: 90%; Herbicidal action against AVEFA ([12]; post-emergence, dosage 80 g/ha): 80
